The values below come from patent publication US20050008896A1, “Luminous organic compound and manufacturing method” (Orient Chemical Ind., Ltd., priority 2003, published 2005).

Where two headings read alike, the source gives them in different places.

Data set [1] is described as follows: Fluorescence (photoluminescence) intensity in ethanol, fluorescence spectrophotometer RF-5300PC. Format: physicochemical. As to conditions: for Fluorescence Intensity / center of Luminous Wave: 25 mg of compound in 100 ml of ethanol; for Relative Value of Fluorescence Intensity, Relative Value (2) (Related to Metal Complex Intermediate 3): metal complex intermediate 3 regarded as 1.00. Here is the method: Fluorescence intensity of each obtained compound was measured in order to evaluate fluorescence property.
A method of the evaluation is as follows. 25 mg of each compound was dissolved in 100 ml of ethanol respectively. The fluorescence intensity, photoluminescence intensity, was measured by a fluorescence spectrophotometer RF-5300PC that is available from Shimadzu Corporation. The measured results of the luminous organic compounds 1 to 9 and 11, the comparative compounds 1 to 3 and the metal complex intermediate 1 to 3 are indicated in Table 3. […] The relative value (2) of the fluorescence intensity indicates the value related to the fluorescence intensity of the metal complex intermediate 3 regarded as 1.00.

For data set [2] the following is noted: stood at room temperature overnight.
Description: A method of measurement of the solubility is as follows. After the prescribed amount of the compound was added to each solvent, it was heated by water bath and irradiated supersonic wave for 1 hour. It was stood at room temperature overnight, and filtrated. Obtained residue was dried. Amount of insoluble residue was weighed, and solubility (w/v %) was determined.
Setting [3] is: comparative compound 3 regarded as 1.00.

For `C[N+](C)(C)CC[N+](C)(C)C.O=C(C=C([O-])C(F)(F)F)c1ccc2ccccc2c1.O=C(C=C([O-])C(F)(F)F)c1ccc2ccccc2c1.O=C(C=C([O-])C(F)(F)F)c1ccc2ccccc2c1.O=C(C=C([O-])C(F)(F)F)c1ccc2ccccc2c1.O=C(C=C([O-])C(F)(F)F)c1ccc2ccccc2c1.O=C(C=C([O-])C(F)(F)F)c1ccc2ccccc2c1.O=C(C=C([O-])C(F)(F)F)c1ccc2ccccc2c1.O=C(C=C([O-])C(F)(F)F)c1ccc2ccccc2c1.[Eu+3].[Eu+3]` [Luminous Organic Compound 1], in data set [1], the “Relative Value of Fluorescence Intensity, Relative Value (1) (Related to Comparative Compound 3)” value worked out at 1.31; the “Fluorescence Intensity” value is 662; the “center of Luminous Wave” value is on record as “(613 nm)”; the “Relative Value of Fluorescence Intensity, Relative Value (2) (Related to Metal Complex Intermediate 3)” value worked out at 1.34. Besides, in data set [2], the “Solubility, Ethanol” value is 0.20 w/v %; the “Solubility, Ethyl Acetate” value is recorded as “over 10.0 w/v %”; the “Solubility, Methyl Ethyl Ketone” value is “over 10.0 w/v %”; the “Solubility, Toluene” value was 0.52 w/v %. Further, the “Solubility, Xylene” value in data set [2] stood at 0.10 w/v %.
Consider `C[N+](C)(C)CCCC[N+](C)(C)C.O=C(C=C([O-])C(F)(F)F)c1ccc2ccccc2c1.O=C(C=C([O-])C(F)(F)F)c1ccc2ccccc2c1.O=C(C=C([O-])C(F)(F)F)c1ccc2ccccc2c1.O=C(C=C([O-])C(F)(F)F)c1ccc2ccccc2c1.O=C(C=C([O-])C(F)(F)F)c1ccc2ccccc2c1.O=C(C=C([O-])C(F)(F)F)c1ccc2ccccc2c1.O=C(C=C([O-])C(F)(F)F)c1ccc2ccccc2c1.O=C(C=C([O-])C(F)(F)F)c1ccc2ccccc2c1.[Tb+3].[Tb+3]` [Luminous Organic Compound 10], for which, in data set [2], the “Solubility, Ethanol” value is reported as 0.062 w/v %; the “Solubility, Ethyl Acetate” value came to 1.21 w/v %; the “Solubility, Methyl Ethyl Ketone” value is given as “over 10.0 w/v %”; the “Solubility, Toluene” value is reported as 0.43 w/v %. Besides, in data set [2], the “Solubility, Xylene” value was determined as 0.32 w/v %.
On to `O=C(C=C([O-])C(F)(F)F)c1ccc2ccccc2c1.O=C(C=C([O-])C(F)(F)F)c1ccc2ccccc2c1.O=C(C=C([O-])C(F)(F)F)c1ccc2ccccc2c1.[Eu+3]` [Metal Complex Intermediate 1], for which, in data set [1], the “Fluorescence Intensity” value is 665; the “center of Luminous Wave” value is on record as “(613 nm)”; the “Relative Value of Fluorescence Intensity, Relative Value (2) (Related to Metal Complex Intermediate 3)” value amounted to 1.35. The “Relative Value of Fluorescence Intensity, Relative Value (1) (Related to Comparative Compound 3)” value in data set [1] (setting [3]) was 1.32.
In the same order, the values of `O=C(C=C([O-])C(F)(F)F)c1cccs1.O=C(C=C([O-])C(F)(F)F)c1cccs1.O=C(C=C([O-])C(F)(F)F)c1cccs1.[Eu+3]` [Metal Complex Intermediate 2] are 566, “(613 nm)”, 1.15 and 1.13.
On the same counts, the results for `O=C(C=C([O-])C(F)(F)F)c1ccccc1.O=C(C=C([O-])C(F)(F)F)c1ccccc1.O=C(C=C([O-])C(F)(F)F)c1ccccc1.[Eu+3]` [Metal Complex Intermediate 3] are 493, “(613 nm)”, “(1.00)” and 0.98.
